Results on 3 molecules are retold here after ChEMBL document CHEMBL1139949, “Structure-activity relationship, kinetic mechanism, and selectivity for a new class of ubiquitin C-terminal hydrolase-L1 (UCH-L1) inhibitors” (Bioorg Med Chem Lett, 2007).

Active and inactive are the calls of the source. The rule behind the calls is not given here.

The target in one data set is T1, Papain (Carica papaya) (UniProt P00784).
T1 sequence (whole entry): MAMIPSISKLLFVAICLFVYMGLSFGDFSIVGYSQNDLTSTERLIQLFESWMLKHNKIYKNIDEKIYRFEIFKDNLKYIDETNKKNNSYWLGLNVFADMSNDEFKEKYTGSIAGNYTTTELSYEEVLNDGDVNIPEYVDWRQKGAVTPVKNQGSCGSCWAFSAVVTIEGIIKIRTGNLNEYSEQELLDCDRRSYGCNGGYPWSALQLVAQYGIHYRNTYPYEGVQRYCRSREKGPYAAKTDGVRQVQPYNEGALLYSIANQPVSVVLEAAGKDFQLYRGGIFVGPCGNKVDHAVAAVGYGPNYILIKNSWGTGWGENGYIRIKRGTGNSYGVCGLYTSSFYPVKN
The data set can be described thus: Inhibition of papain at 40 uM.

Data set [1] deals with T2, Ubiquitin carboxyl-terminal hydrolase isozyme L3 (Homo sapiens) (UniProt P15374).
T2 sequence (whole entry): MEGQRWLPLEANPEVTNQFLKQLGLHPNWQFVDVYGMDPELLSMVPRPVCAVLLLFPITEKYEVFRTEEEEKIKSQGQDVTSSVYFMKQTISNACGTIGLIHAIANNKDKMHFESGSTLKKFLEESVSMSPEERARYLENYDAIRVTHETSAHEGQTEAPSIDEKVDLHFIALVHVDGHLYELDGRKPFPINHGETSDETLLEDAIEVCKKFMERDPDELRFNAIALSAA
The experiment in a line: Inhibition of UCHL3 at 20 uM.

Data set [2] deals with T3, Ubiquitin carboxyl-terminal hydrolase 5 (Homo sapiens) (UniProt P45974).
T3 sequence (whole entry): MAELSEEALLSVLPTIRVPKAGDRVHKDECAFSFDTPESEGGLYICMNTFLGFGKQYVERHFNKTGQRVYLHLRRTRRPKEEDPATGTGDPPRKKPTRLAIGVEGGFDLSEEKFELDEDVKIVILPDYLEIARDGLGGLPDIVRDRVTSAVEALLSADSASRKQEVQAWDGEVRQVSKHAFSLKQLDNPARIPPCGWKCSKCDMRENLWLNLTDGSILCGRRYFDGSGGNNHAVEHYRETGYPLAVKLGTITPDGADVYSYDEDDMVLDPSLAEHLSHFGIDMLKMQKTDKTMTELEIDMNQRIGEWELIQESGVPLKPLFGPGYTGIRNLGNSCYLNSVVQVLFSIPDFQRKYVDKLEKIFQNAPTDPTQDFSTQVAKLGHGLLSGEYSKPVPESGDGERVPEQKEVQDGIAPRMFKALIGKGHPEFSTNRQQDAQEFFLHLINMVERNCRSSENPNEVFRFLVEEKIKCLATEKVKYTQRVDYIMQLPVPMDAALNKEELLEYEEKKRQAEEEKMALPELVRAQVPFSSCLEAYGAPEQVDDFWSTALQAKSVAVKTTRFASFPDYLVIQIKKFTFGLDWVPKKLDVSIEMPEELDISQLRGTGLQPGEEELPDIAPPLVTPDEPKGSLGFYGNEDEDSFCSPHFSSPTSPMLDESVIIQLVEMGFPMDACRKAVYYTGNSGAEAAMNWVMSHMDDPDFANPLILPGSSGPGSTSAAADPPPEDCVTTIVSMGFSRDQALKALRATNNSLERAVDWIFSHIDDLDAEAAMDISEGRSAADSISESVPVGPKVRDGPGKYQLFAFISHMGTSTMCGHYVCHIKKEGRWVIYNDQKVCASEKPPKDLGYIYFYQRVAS
The data set can be described thus: Inhibition of isopeptidase T at 40 uM.

In a further data set the test system is N2a. The data set can be described thus: Cytotoxicity against serum-starved mouse N2A cells at 0.1 mM. Particulars: 100 µM. In kind it is cell-based.
Data set [3] has as its target T4, Protein-glutamine gamma-glutamyltransferase (Homo sapiens) (UniProt P21980).
T4 sequence (whole entry): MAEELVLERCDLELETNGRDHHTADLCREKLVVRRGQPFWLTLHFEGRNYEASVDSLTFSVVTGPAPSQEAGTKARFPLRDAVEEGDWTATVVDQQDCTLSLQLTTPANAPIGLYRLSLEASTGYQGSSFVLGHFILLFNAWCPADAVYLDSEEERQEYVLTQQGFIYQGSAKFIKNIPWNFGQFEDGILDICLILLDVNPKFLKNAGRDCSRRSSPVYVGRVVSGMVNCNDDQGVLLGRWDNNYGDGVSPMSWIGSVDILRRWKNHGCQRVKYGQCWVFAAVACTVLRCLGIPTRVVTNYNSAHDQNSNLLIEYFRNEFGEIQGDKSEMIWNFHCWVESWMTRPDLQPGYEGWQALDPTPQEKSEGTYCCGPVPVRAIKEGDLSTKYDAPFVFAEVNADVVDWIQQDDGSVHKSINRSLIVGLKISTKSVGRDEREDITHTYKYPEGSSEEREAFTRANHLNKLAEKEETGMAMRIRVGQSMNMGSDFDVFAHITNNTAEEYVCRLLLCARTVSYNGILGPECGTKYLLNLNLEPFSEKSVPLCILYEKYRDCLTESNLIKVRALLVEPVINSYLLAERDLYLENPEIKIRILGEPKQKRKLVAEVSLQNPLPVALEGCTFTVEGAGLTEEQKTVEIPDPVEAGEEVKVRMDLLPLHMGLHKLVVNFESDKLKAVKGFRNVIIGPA
The data set can be described thus: Inhibition of TGase 2 at 40 uM.

For another data set, the target named is T5, Caspase-3 (Homo sapiens) (UniProt P42574).
T5 sequence (whole entry): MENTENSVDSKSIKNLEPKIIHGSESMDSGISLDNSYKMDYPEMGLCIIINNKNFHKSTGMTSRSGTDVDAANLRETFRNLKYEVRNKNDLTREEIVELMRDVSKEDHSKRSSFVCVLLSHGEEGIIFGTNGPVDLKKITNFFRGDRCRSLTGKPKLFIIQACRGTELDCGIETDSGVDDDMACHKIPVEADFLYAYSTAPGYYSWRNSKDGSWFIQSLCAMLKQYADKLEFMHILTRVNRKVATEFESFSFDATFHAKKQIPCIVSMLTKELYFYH
The data set can be described thus: Inhibition of caspase 3 at 40 uM.

On to `Nc1c(C(=O)c2ccc(Cl)cc2)sc2[nH]c(=O)c(C(=O)O)cc12`, for which the outcome on Papain (Carica papaya) was inactive.

As usually defined, the inhibition is the drop in the measured response relative to a control, in per cent. Take `Cc1ccc(C(=O)c2sc3[nH]c(=O)c(C(=O)O)cc3c2N)cc1`: the inhibition in data set [1] was 30%. Also, the result (in data set [2]; on Papain (Carica papaya)) was inactive.

`Cl.Nc1c(C(=O)c2ccccc2)sc2[nH]c(=O)c(C(=O)O)cc12`: the Activity result in the data set with N2a is recorded as “Non-toxic”. The result (in data set [3]; in data set [1]; on Papain (Carica papaya); at Caspase-3 (Homo sapiens)) was inactive.
